We go through two compounds from US20250352497A1, “BIGUANIDE BASE COMPOSITIONS, BIGUANIDE BASE PHARMACEUTICAL COMPOSITIONS, AND THEIR PREPARATIONS AND USES” (ADA FORSYTH INSTITUTE, INC., priority 2022, published 2025).

What all share (assay type): cell-based
For assay [1], the system named is model microbiome simulating human oral microbiome. Briefly: pH of model microbiome (supernatant and saliva-derived biofilm) after treatment in the presence of 2% sucrose. As to the method: (§1) Saliva samples were collected and pooled from 5 healthy volunteers as a model microbiome simulating human oral microbiome, and used to inoculate SHI medium containing different test compositions and controls.
(§2) 1 mL pooled saliva sample was added to each well of a 24-well plate that had been pre-coated with sterilized, cell-free saliva. The plate was incubated at 37° C. for 16 h in microaerobic conditions (2% O2, 5% CO2, balanced with nitrogen) to allow biofilm formation. After incubation, planktonic portion was collected, optical density was measured at 600 nm and cells were pelleted for DNA isolation. Meanwhile, 1 mL of SHI medium was added to the biofilm portion of each well, biofilm cells were dispersed by scraping and vortex to break the cell aggregates. Optical density was measured at 600 nm and cells were collected for DNA isolation.
Supernatant and biofilms prepared with the model microbiome simulating human oral microbiome according to Example III were treated with embodiments of the CHX base composition (e.g., solution embodiments of the CHX base composition prepared according to Example I (the CHX base solutions); and MSN3 prepared according to Example II(B)(ii)).
Supernatant and biofilms prepared with the model microbiome simulating human oral microbiome according to Example III were treated with CHX base solution (100 μg/mL, prepared according to Example I(A)); MSN3 (100 μg/mL and 125 μg/mL of CHX base, prepared according to Example I(B)); or nothing (control).

For assay [2] the test system is unchanged. Kind of assay: Bacterial killing effects on model microbiome (optical density at 600 nm). As for the experimental part:
as §1, §2
However, the pH of the treated biofilm appeared to depend on the CHX base concentration administered. The pH of the biofilm treated with CHX base solutions and CHX base loaded MSN remained under 5.5 when the CHX base concentration was 75 μg/mL or lower. […]

Assay [3] has the same test system. Briefly: Total colony forming units in supernatant and biofilm after treatment. The note with it: supernatant and biofilms. As for the experimental part: as §1, §2
CHX-G and CPC were also evaluated in the same model microbiome prepared in supernatant and biofilms according to Example III.

Regarding `[H]/N=C(\N/C(=N/[H])NCCCCCCNC(=N)NC(=N)Nc1ccc(Cl)cc1)Nc1ccc(Cl)cc1` [CHX base, Chlorhexidine], in assay [1] (Example IV, 16 hr, 2% sucrose), the “pH of treated microbiome/biofilm compared with control” value is listed as “higher pH”. For the same compound, the “pH of the treated microbiome” value in assay [1] (supernatant and biofilms, various concentrations) was not above 6.9. For the same compound, the “cells present after treatment” value in assay [2] (Example IV(B): CHX base solution 100 μg/mL, MSN3 100 and 125 μg/mL of CHX base) was “abundant of cells”. Besides, the “survival/elimination of bacteria after treatment” value in assay [2] (Example IV, supernatant and biofilms) was “without complete elimination of bacteria”.

`N=C(NCCCCCCNC(=N)NC(=N)Nc1ccc(Cl)cc1)NC(=N)Nc1ccc(Cl)cc1.O=C(O)[C@H](O)[C@@H](O)[C@H](O)[C@H](O)CO.O=C(O)[C@H](O)[C@@H](O)[C@H](O)[C@H](O)CO` [CHX-G, chlorhexidine digluconate]: the “pH of treated biofilms compared with untreated biofilms” value in assay [1] (Example V) was “higher pH”. Besides, the “bacterial killing compared with MSN3 (200 μg/mL of CHX base)” value in assay [3] (200 μg/mL) is given as “killed more bacteria”. Further, the “bacteria remaining after treatment” value in assay [3] (Example V) is on record as “no trace of bacteria”.
